Test results taken from ChEMBL document CHEMBL3608295, “Antimicrobial activity of doubly-stapled alanine/lysine-based peptides” (Bioorg Med Chem Lett, 2015).
Converted amounts (≈) assume the structure as drawn. Starred links: 1 amine or outer side, 2 acyl side, 3 side chain; linkers in the order of their positions; H or OH if unused. Positions of bridges follow the written chain, without caps; N, C: chain ends. Non-standard residues stand in square brackets, D forms with d. Residues, ends and D or L forms follow the SMILES beside them. R5 = C=CCCC[C@@](C)(N)C(=O)O; Suc = O=C(CCC(=O)[*:2])[*:1]

Assays:
Bacillus spizizenii = assay: Antimicrobial activity against Bacillus subtilis ATCC 6633 after 24 hrs by broth microdilution method; type: functional; details: ATCC 6633, 24 h
Staphylococcus aureus = assay: Antimicrobial activity against Staphylococcus aureus ATCC 6538p after 24 hrs by broth microdilution method; type: functional
[1] = system: Staphylococcus epidermidis; assay: Antimicrobial activity against Staphylococcus epidermidis ATCC 12228 after 24 hrs by broth microdilution method; type: functional; details: ATCC 12228, 24 h
Escherichia coli = assay: Antimicrobial activity against Escherichia coli ATCC 25922 after 24 hrs by broth microdilution method; type: functional; details: ATCC 25922, 24 h
Shigella dysenteriae = assay: Antimicrobial activity against Shigella dysenteriae ATCC 9752 after 24 hrs by broth microdilution method; type: functional; details: ATCC 9752, 24 h
Salmonella typhimurium = assay: Antimicrobial activity against Salmonella typhimurium ATCC 14028 after 24 hrs by broth microdilution method; type: functional, Salmonella enterica subsp. enterica serovar Typhimurium; details: Salmonella enterica, ATCC 14028, 24 h
Klebsiella pneumoniae = assay: Antimicrobial activity against Klebsiella pneumoniae ATCC 10031 after 24 hrs by broth microdilution method; type: functional; details: ATCC 10031, 24 h
Pseudomonas aeruginosa = assay: Antimicrobial activity against Pseudomonas aeruginosa ATCC 27853 after 24 hrs by broth microdilution method; type: functional; details: ATCC 27853, 24 h
[2] = Hemolytic activity in human RBC at 25 uM after 30 mins relative to control; type: ADME, cell-based, Erythrocyte; details: human red blood cells (RBC), read-out: Activity
[3] = Hemolytic activity in human RBC at 12.5 uM after 30 mins relative to control; type: ADME, cell-based, Erythrocyte; details: human red blood cells (RBC), read-out: Activity
trypsin [4] = assay: Stability of the compound assessed as trypsin (unknown origin)-mediated compound degradation by measuring compound remaining at substrate/enzyme ratio of 1600/1 at 25 degC after 60 mins by HPLC analysis; type: ADME; details: human, read-out: Stability
trypsin [5] = assay: (§1) Stability of the compound assessed as trypsin (unknown origin)-mediated compound degradation at substrate/enzyme ratio of 1600/1 at 25 degC after 10 mins by HPLC analysis; type: ADME; details: human, trypsin (unknown origin); read-out: Drug degradation
[6] = as §1; type: ADME; details: human, 10 min

CC(=O)N[C@@H](CCCCN)C(=O)N[C@]1(C)CCC/C=C\CCC[C@](C)(C(=O)N[C@@H](CCCCN)C(=O)N[C@@H](CCCCN)C(=O)N[C@]2(C)CCC/C=C\CCC[C@](C)(C(=O)N[C@@H](Cc3c[nH]c4ccccc34)C(=O)N[C@@H](CCCCN)C(N)=O)NC(=O)[C@H](C)NC(=O)[C@H](CCCCN)NC(=O)[C@H](C)NC2=O)NC(=O)[C@H](C)NC(=O)[C@H](CCCCN)NC(=O)[C@H](C)NC1=O (Ac-K[R5]AKA[R5]KK[R5]AKA[R5]WK-NH2; staple (Z) 2-6, 9-13)
MIC (Bacillus spizizenii): 1.6 mg/L (≈ 0.889 µM)
MIC (Staphylococcus aureus): 4.8 mg/L (≈ 2.67 µM)
MIC [1]: 3.1 mg/L (≈ 1.72 µM)
MIC (Escherichia coli): 25 mg/L (≈ 13.9 µM)
MIC (Shigella dysenteriae): 25 mg/L (≈ 13.9 µM)
MIC (Salmonella typhimurium): 100 mg/L (≈ 55.6 µM)
MIC (Klebsiella pneumoniae): 200 mg/L (≈ 111 µM)
MIC (Pseudomonas aeruginosa): 100 mg/L (≈ 55.6 µM)
hemolysis at 0.5 h, 25 µM [2]: 38.8%
hemolysis at 0.5 h, 12.5 µM [3]: 22.1%
remaining at 1 h (trypsin [4]): > 85%

CC(=O)N[C@@H](CCCCN)C(=O)N[C@]1(C)CCC/C=C\CCC[C@](C)(C(=O)N[C@@H](CCCCN)C(=O)N[C@@H](CCCCN)C(=O)N[C@]2(C)CCC/C=C\CCC[C@](C)(C(=O)N[C@@H](C)C(=O)N[C@@H](CCCCN)C(N)=O)NC(=O)[C@H](Cc3c[nH]c4ccccc34)NC(=O)[C@H](CCCCN)NC(=O)[C@H](C)NC2=O)NC(=O)[C@H](C)NC(=O)[C@H](CCCCN)NC(=O)[C@H](C)NC1=O (Ac-K[R5]AKA[R5]KK[R5]AKW[R5]AK-NH2; staple (Z) 2-6, 9-13)
MIC (Bacillus spizizenii): 1.6 mg/L (≈ 0.889 µM)
MIC (Staphylococcus aureus): 3.1 mg/L (≈ 1.72 µM)
MIC [1]: 4.8 mg/L (≈ 2.67 µM)
MIC (Escherichia coli): 50 mg/L (≈ 27.8 µM)
MIC (Shigella dysenteriae): 50 mg/L (≈ 27.8 µM)
MIC (Salmonella typhimurium): 200 mg/L (≈ 111 µM)
MIC (Klebsiella pneumoniae): 100 mg/L (≈ 55.6 µM)
MIC (Pseudomonas aeruginosa): 100 mg/L (≈ 55.6 µM)
hemolysis at 0.5 h, 25 µM [2]: 42.5%
hemolysis at 0.5 h, 12.5 µM [3]: 25.3%

CC(=O)N[C@@H](CCCCN)C(=O)N[C@]1(C)CCC/C=C\CCC[C@](C)(C(=O)N[C@@H](CCCCN)C(=O)N[C@@H](CCCCN)C(=O)N[C@@H](C)C(=O)N[C@@H](C)C(=O)N[C@@H](CCCCN)C(=O)N[C@@H](C)C(=O)N[C@@H](C)C(=O)N[C@@H](Cc2c[nH]c3ccccc23)C(=O)N[C@@H](CCCCN)C(N)=O)NC(=O)[C@H](C)NC(=O)[C@H](CCCCN)NC(=O)[C@H](C)NC1=O (Ac-K[R5]AKA[R5]KKAAKAAWK-NH2; staple (Z) 2-6)
MIC (Bacillus spizizenii): 25 mg/L (≈ 14.8 µM)
MIC (Staphylococcus aureus): 9.4 mg/L (≈ 5.56 µM)
MIC [1]: 75 mg/L (≈ 44.3 µM)
MIC (Escherichia coli): 3.1 mg/L (≈ 1.83 µM)
MIC (Shigella dysenteriae): 18.8 mg/L (≈ 11.1 µM)
MIC (Salmonella typhimurium): > 200 mg/L
MIC (Klebsiella pneumoniae): 18.8 mg/L (≈ 11.1 µM)
MIC (Pseudomonas aeruginosa): 100 mg/L (≈ 59.1 µM)
hemolysis at 0.5 h, 25 µM [2]: < 1%
hemolysis at 0.5 h, 12.5 µM [3]: < 1%
metabolised at 10 min (trypsin [5]): 73%

CC(=O)N[C@@H](CCCCN)C(=O)N[C@]1(C)CCC/C=C\CCC[C@](C)(C(=O)N[C@@H](CCCCN)C(=O)N[C@@H](CCCCN)C(=O)N[C@]2(C)CCC/C=C\CCC[C@](C)(C(=O)N[C@@H](C)C(=O)N[C@@H](CCCCN)C(N)=O)NC(=O)[C@H](C)NC(=O)[C@H](CCCCN)NC(=O)[C@H](C)NC2=O)NC(=O)[C@H](C)NC(=O)[C@H](CCCCN)NC(=O)[C@H](Cc2c[nH]c3ccccc23)NC1=O (Ac-K[R5]WKA[R5]KK[R5]AKA[R5]AK-NH2; staple (Z) 2-6, 9-13)
MIC (Bacillus spizizenii): 3.1 mg/L (≈ 1.72 µM)
MIC (Staphylococcus aureus): 4.8 mg/L (≈ 2.67 µM)
MIC [1]: 4.8 mg/L (≈ 2.67 µM)
MIC (Escherichia coli): 25 mg/L (≈ 13.9 µM)
MIC (Shigella dysenteriae): 50 mg/L (≈ 27.8 µM)
MIC (Salmonella typhimurium): 100 mg/L (≈ 55.6 µM)
MIC (Klebsiella pneumoniae): 100 mg/L (≈ 55.6 µM)
MIC (Pseudomonas aeruginosa): 200 mg/L (≈ 111 µM)
hemolysis at 0.5 h, 25 µM [2]: 42.5%
hemolysis at 0.5 h, 12.5 µM [3]: 28.9%

CC(=O)N[C@@H](CCCCN)C(=O)N[C@]1(C)CCC/C=C\CCC[C@](C)(C(=O)N[C@@H](CCCCN)C(=O)N[C@@H](CCCCN)C(=O)N[C@]2(C)CCC/C=C\CCC[C@](C)(C(=O)N[C@@H](C)C(=O)N[C@@H](CCCCN)C(N)=O)NC(=O)[C@H](C)NC(=O)[C@H](CCCCN)NC(=O)[C@H](C)NC2=O)NC(=O)[C@H](Cc2c[nH]c3ccccc23)NC(=O)[C@H](CCCCN)NC(=O)[C@H](C)NC1=O (Ac-K[R5]AKW[R5]KK[R5]AKA[R5]AK-NH2; staple (Z) 2-6, 9-13)
MIC (Bacillus spizizenii): 1.6 mg/L (≈ 0.889 µM)
MIC (Staphylococcus aureus): 1.6 mg/L (≈ 0.889 µM)
MIC [1]: 1.6 mg/L (≈ 0.889 µM)
MIC (Escherichia coli): 18.8 mg/L (≈ 10.4 µM)
MIC (Shigella dysenteriae): 25 mg/L (≈ 13.9 µM)
MIC (Salmonella typhimurium): 37.5 mg/L (≈ 20.8 µM)
MIC (Klebsiella pneumoniae): 37.5 mg/L (≈ 20.8 µM)
MIC (Pseudomonas aeruginosa): 25 mg/L (≈ 13.9 µM)
hemolysis at 0.5 h, 25 µM [2]: 38.5%
hemolysis at 0.5 h, 12.5 µM [3]: 22%

C[C@@H]1NC(=O)[C@H](CCCCN)NC(=O)[C@H](C)NC(=O)[C@](C)(NC(=O)[C@H](CCCCN)NC(=O)[C@H](CCCCN)NC(=O)[C@@]2(C)CCC/C=C\CCC[C@@](C)(NC(=O)[C@H](CCCCN)NC(=O)CCC(=O)O)C(=O)N[C@@H](C)C(=O)N[C@@H](CCCCN)C(=O)N[C@@H](Cc3c[nH]c4ccccc34)C(=O)N2)CCC/C=C\CCC[C@](C)(C(=O)N[C@@H](C)C(=O)N[C@@H](CCCCN)C(N)=O)NC1=O (Suc-K[R5]AKW[R5]KK[R5]AKA[R5]AK-NH2; staple (Z) 2-6, 9-13)
MIC (Bacillus spizizenii): 1.6 mg/L (≈ 0.861 µM)
MIC (Staphylococcus aureus): 1.6 mg/L (≈ 0.861 µM)
MIC [1]: 1.6 mg/L (≈ 0.861 µM)
MIC (Escherichia coli): 12.5 mg/L (≈ 6.73 µM)
MIC (Shigella dysenteriae): 50 mg/L (≈ 26.9 µM)
MIC (Salmonella typhimurium): > 200 mg/L
MIC (Klebsiella pneumoniae): 25 mg/L (≈ 13.5 µM)
MIC (Pseudomonas aeruginosa): 50 mg/L (≈ 26.9 µM)
hemolysis at 0.5 h, 25 µM [2]: 32.6%
hemolysis at 0.5 h, 12.5 µM [3]: 19.5%

C[C@@H]1NC(=O)[C@H](CCCCN)NC(=O)[C@H](C)NC(=O)[C@](C)(NC(=O)[C@H](CCCCN)NC(=O)[C@H](CCCCN)NC(=O)[C@@]2(C)CCC/C=C\CCC[C@@](C)(NC(=O)[C@@H](N)CCCCN)C(=O)N[C@@H](C)C(=O)N[C@@H](CCCCN)C(=O)N[C@@H](Cc3c[nH]c4ccccc34)C(=O)N2)CCC/C=C\CCC[C@](C)(C(=O)N[C@@H](C)C(=O)N[C@@H](CCCCN)C(N)=O)NC1=O (H-K[R5]AKW[R5]KK[R5]AKA[R5]AK-NH2; staple (Z) 2-6, 9-13)
MIC (Bacillus spizizenii): 1.6 mg/L (≈ 0.91 µM)
MIC (Staphylococcus aureus): 1.6 mg/L (≈ 0.91 µM)
MIC [1]: 1.6 mg/L (≈ 0.91 µM)
MIC (Escherichia coli): 3.1 mg/L (≈ 1.76 µM)
MIC (Shigella dysenteriae): 12.5 mg/L (≈ 7.11 µM)
MIC (Salmonella typhimurium): 6.3 mg/L (≈ 3.59 µM)
MIC (Klebsiella pneumoniae): 12.5 mg/L (≈ 7.11 µM)
MIC (Pseudomonas aeruginosa): 6.3 mg/L (≈ 3.59 µM)
hemolysis at 0.5 h, 25 µM [2]: 25.5%
hemolysis at 0.5 h, 12.5 µM [3]: 13.5%

Ac-KAAKAAKKAAKAAWK-NH2
MIC (Bacillus spizizenii): > 200 mg/L
MIC (Staphylococcus aureus): > 200 mg/L
MIC [1]: > 200 mg/L
MIC (Escherichia coli): > 200 mg/L
MIC (Shigella dysenteriae): > 200 mg/L
MIC (Salmonella typhimurium): > 200 mg/L
MIC (Klebsiella pneumoniae): > 200 mg/L
MIC (Pseudomonas aeruginosa): > 200 mg/L
hemolysis at 0.5 h, 25 µM [2]: < 1%
hemolysis at 0.5 h, 12.5 µM [3]: < 1%
Stability [6]: Unstable
